Assay results published in ChEMBL document CHEMBL1121567, “Synthesis of some 5-phenylhexahydroazepino[4,5-b]indoles as potential neuroleptic agents” (1980).

Assays:
[1] = system: Rattus norvegicus; test: Effective dose to block muricidal behavior in rat when administered ip; format: functional
[2] = system: Mus musculus; test: Effective dose to reverse tetrabenazine ptosis in mouse when administered po; format: functional

SMILES | ED50 [1] [mg/kg] | ED50 [2] [mg/kg]
CN1CCc2c(n(C)c3ccccc23)C(c2ccccc2)C1 (centres undefined) | > 20 | > 30
CN1CCc2c([nH]c3ccccc23)C(c2ccccc2)C1 (centres undefined) | > 10 | 1
c1ccc(C2CNCCc3c2[nH]c2ccccc32)cc1 (centres undefined) | 2.1 | > 30
Cn1c2c(c3ccccc31)CCNCC2c1ccccc1 (centres undefined) | > 10 | > 30
COc1ccc2[nH]c3c(c2c1)CCN(C)CC3c1ccccc1 (centres undefined) | > 10 | 1.9
COc1ccc2[nH]c3c(c2c1)CCNCC3c1ccccc1 (centres undefined) | 12.2 | > 30
CN(C)CCCN1c2ccccc2CCc2ccccc21 [IMIPRAMINE] | 20.2 | 2
